Assay results published in ChEMBL document CHEMBL1201862, “PubChem BioAssay data set” (2004).
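These data come from cells grown in 96-well plates and exposed to compound for 48 hours at five concentrations. Abbreviation: GI50, concentration required for 50% inhibition of growth.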 Calls of active or inactive are those of the source. No stated cut-off is given here; in the data, active = GI50 up to about 1.1 µM and inactive = higher.

Legend:
Assay in all cases: NCI-60 cell line screen, 48 h
[1] = tested on: U-251
[2] = tested on: SR
[3] = tested on: SF-268
[4] = tested on: MCF7
[5] = tested on: LOX IMVI
[6] = tested on: SNB-75
[7] = tested on: SK-MEL-2
[8] = tested on: SW-620
[9] = tested on: CAKI-1
[10] = tested on: HL-60
[11] = tested on: SN12C
[12] = tested on: SNB-19
[13] = tested on: UACC-62
[14] = tested on: PC-3
[15] = tested on: OVCAR-8
[16] = tested on: HCC 2998
[17] = tested on: HT-29
[18] = tested on: Malme-3M
[19] = tested on: K562
[20] = tested on: DU-145

Measured: GI50

CCCCCCCCCCCCCCCCSS(C)(=O)=O
inactive: [1] 55 µM | [2] 4.65 µM | [3] 10.7 µM | [4] 27.6 µM | [5] 3.73 µM | [6] 14.6 µM | [7] 5.81 µM | [8] 5.21 µM | [9] 10.1 µM | [10] 4.07 µM | [11] 37.8 µM | [12] > 100 µM | [13] 22.4 µM | [14] > 100 µM | [15] 29.4 µM | [16] > 53.6 µM | [17] 25.2 µM | [18] 7.45 µM | [19] 9.64 µM | [20] > 100 µM

NC(=O)c1ncn(C2C=CC(CP(=O)(O)O)C2)c1N (stereo not given)
inactive: [1] > 100 µM | [2] > 100 µM | [3] > 100 µM | [4] > 100 µM | [5] > 100 µM | [6] > 100 µM | [7] > 100 µM | [8] > 100 µM | [9] > 100 µM | [10] > 100 µM | [11] > 100 µM | [12] > 100 µM | [13] > 100 µM | [14] > 100 µM | [15] > 100 µM | [16] > 100 µM | [17] > 100 µM | [18] > 100 µM | [19] > 100 µM | [20] > 100 µM
